Test results as given in patent US20250296938A1, “Compounds that Interact with the Ras Superfamily for the Treatment of Cancers, Inflammatory Diseases, Rasopathies, and Fibrotic Disease” (SHY Therapeutics, LLC, priority 2018, published 2025).
Where two headings read alike, the source gives them in different places.

Experiments:
Assay in all cases: Ras GTP binding domain inhibition assay (Cy3-GTP/Cy5-GTP competition)
[1] = target: Rac-1 (Homo sapiens, UniProt P63000)
Procedure, shortened: (§1)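 First, His-tagged protein is coated on nickel wells overnight at 4 °C. Next, compound (20 μM single point or serial dilution) is added for 3 h at room temperature, with or without Sos exchange factor in the last hour. Finally, 100 nM labelled GTP binds for 45 min and retained signal is measured.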

[2] = target: Rho-A (Homo sapiens, UniProt P61586)
Procedure, shortened: as §1

[3] = target: T1, KRas G12D mutant (Homo sapiens, UniProt P01116, G12D); details: at 20 μM
T1 construct: fused on or other part: His tag, used for capture on nickel-coated plates
Procedure, shortened: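 Ni-plate immobilised His-Ras, overnight 4 °C; cpd 20 μM (or dilution series for IC50), 1% DMSO, 3 h RT; optional His-Sos […] last hour; Cy3- or Cy5-GTP 100 nM, 45 min RT; 3× wash; bound fluorescence read.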

[4] = with SOS, read-out: Rac-1 + SOS: % inh.
[5] = without SOS, read-out: Rac-1: % inh.
[6] = with SOS, read-out: Rho-A + SOS: % inh.
[7] = without SOS, read-out: Rho-A: % inh.
[8] = with SOS, read-out: KRas G12D mutant + SOS: % inh.
[9] = without SOS, read-out: KRas G12D mutant: % inh.

Row | SMILES | inhibition at 20 µM [1, 4] | inhibition at 20 µM [1, 5] | inhibition at 20 µM [2, 6] | inhibition at 20 µM [2, 7] | inhibition at 20 µM [3, 8] | inhibition at 20 µM [3, 9] | Rac-1 + SOS: % inh. ([1]; at 20 μM, with SOS) | Rac-1: % inh. ([1]; at 20 μM, without SOS) | Rho-A + SOS: % inh. ([2]; at 20 μM, with SOS) | Rho-A: % inh. ([2]; at 20 μM, without SOS) | KRas G12D mutant: % inh. ([3]; without SOS)
1 | COC1CCN(c2nc(-c3nccn3C)nc3sc(-c4ccnn4C)c(-c4ccccc4)c23)C1 (stereo not drawn) [drawing 972] | 1 to 25% | 26 to 50% | 76 to 100% | 51 to 75% | 51 to 75% | 51 to 75% |  |  |  |  | 
2 | COc1cccc(-c2sc3nc(-c4nccn4C)nc(N4CCC(OC)C4)c3c2-c2ccccc2)c1F.Cl (stereo not drawn) [drawing 973] |  |  |  |  | 51 to 75% |  | 0 (0% inhibition) | A (1-25% inhibition) | C (51-75% inhibition) | A (1-25% inhibition) | C (51-75% inhibition)
3 | COc1ccc(Cn2cnc(-c3nc(O)c4scc(-c5ccccn5)c4n3)c2)cc1 [drawing 974] | 1 to 25% | 1 to 25% | 0% | 0% | 0% | 1 to 25% |  |  |  |  | 
4 | COc1nscc1-c1sc2nc(-c3nccn3C)nc(N3CCC(OC)C3)c2c1-c1ccccc1 (stereo not drawn) [drawing 975] | 26 to 50% | 26 to 50% | 1 to 25% | 1 to 25% | 51 to 75% | 26 to 50% |  |  |  |  | 
5 | COCCn1cc(-c2sc3nc(-c4nccn4C)nc(N4CCC(OC)C4)c3c2-c2ccccc2)cn1 (stereo not drawn) [drawing 976] | 51 to 75% | 51 to 75% | 26 to 50% | 26 to 50% | 51 to 75% | 51 to 75% |  |  |  |  | 
6 | COC1CCN(c2nc(-c3nccn3C)nc3sc(-c4cnc(C5CC5)o4)c(-c4ccccc4)c23)C1 (stereo not drawn) [drawing 977] | 1 to 25% | 1 to 25% | 51 to 75% | 26 to 50% | 51 to 75% | 51 to 75% |  |  |  |  | 
7 | COc1ncccc1-c1sc2nc(-c3nccn3C)nc(N3CCC(OC)C3)c2c1-c1ccccc1 (stereo not drawn) [drawing 978] | 51 to 75% | 26 to 50% | 51 to 75% | 51 to 75% | 51 to 75% | 51 to 75% |  |  |  |  | 
8 | COC1CCN(c2nc(-c3nccn3C)nc3sc(-c4cccnc4)c(-c4ccccc4)c23)C1 (stereo not drawn) [drawing 979] | 51 to 75% | 76 to 100% | 51 to 75% | 51 to 75% | 51 to 75% | 51 to 75% |  |  |  |  | 
9 | COc1cc(-c2sc3nc(-c4nccn4C)nc(N4CCC(OC)C4)c3c2-c2ccccc2)ccn1 (stereo not drawn) [drawing 980] | 1 to 25% | 26 to 50% | 26 to 50% | 1 to 25% | 51 to 75% | 51 to 75% |  |  |  |  | 
10 | Cc1cc(Cn2ccnc2-c2nc(O)c3scc(-c4ccccn4)c3n2)on1 [drawing 981] | 51 to 75% | 51 to 75% | 26 to 50% | 1 to 25% | 26 to 50% | 51 to 75% |  |  |  |  | 
11 | Oc1nc(-c2cn(-c3ccccc3)cn2)nc2c(-c3ccccn3)csc12 [drawing 982] | 1 to 25% | 26 to 50% | 26 to 50% | 0% | 1 to 25% | 1 to 25% |  |  |  |  | 
12 | Oc1nc(-c2cn3cccnc3n2)nc2c(-c3ccccn3)csc12 [drawing 983] | 0% | 0% | 1 to 25% | 26 to 50% | 1 to 25% | 1 to 25% |  |  |  |  | 
13 | COC1CCN(c2nc(-c3nccn3C)nc3sc(-c4ccccc4Cl)c(-c4cscn4)c23)C1 (stereo not drawn) [drawing 984] | 76 to 100% | 51 to 75% | 51 to 75% | 0% | 51 to 75% | 51 to 75% |  |  |  |  | 
14 | COc1cccc(Cn2ccnc2-c2nc(O)c3scc(-c4ccccn4)c3n2)c1 [drawing 985] | 76 to 100% | 76 to 100% | 51 to 75% | 26 to 50% | 51 to 75% | 76 to 100% |  |  |  |  | 
15 | Oc1nc(-c2nccn2Cc2ccccn2)nc2c(-c3ccccn3)csc12 [drawing 986] | 51 to 75% | 76 to 100% | 51 to 75% | 51 to 75% | 51 to 75% | 76 to 100% |  |  |  |  | 
16 | COCCn1ccnc1-c1nc(O)c2scc(-c3ccccn3)c2n1 [drawing 987] | 76 to 100% | 76 to 100% | 51 to 75% | 51 to 75% | 51 to 75% | 76 to 100% |  |  |  |  | 

Row | SMILES | inhibition at 20 µM [1, 4] | inhibition at 20 µM [1, 5] | inhibition at 20 µM [2, 6] | inhibition at 20 µM [2, 7] | inhibition at 20 µM [3, 8] | inhibition at 20 µM [3, 9] | Rac-1 + SOS: % inh. ([1]; at 20 μM, with SOS) | Rac-1: % inh. ([1]; at 20 μM, without SOS) | Rho-A + SOS: % inh. ([2]; at 20 μM, with SOS) | Rho-A: % inh. ([2]; at 20 μM, without SOS) | KRas G12D mutant: % inh. ([3]; without SOS)
17 | Cn1ccnc1-c1nc(O)c2scc(-c3ccccn3)c2n1 [drawing 988] | 76 to 100% | 51 to 75% | 76 to 100% | 51 to 75% | 51 to 75% | 76 to 100% |  |  |  |  | 
18 | COCC(C)Nc1nc(-c2nccn2C)nc2sc(-c3ccccc3Cl)c(-c3cscn3)c12 (stereo not drawn) [drawing 989] | 26 to 50% | 26 to 50% | 26 to 50% | 26 to 50% | 51 to 75% | 51 to 75% |  |  |  |  | 
19 | COCC(C)Nc1nc(-c2nccn2C)nc2sc(-c3cccc(OC)c3)c(-c3cscn3)c12 (stereo not drawn) [drawing 990] | 1 to 25% | 26 to 50% | 26 to 50% | 26 to 50% | 51 to 75% | 51 to 75% |  |  |  |  | 
20 | COC1CCN(c2nc(-c3nccn3C)nc3sc(-c4ccn(C)n4)c(-c4ccccc4)c23)CC1 [drawing 991] | 26 to 50% | 26 to 50% | 0% | 0% | 26 to 50% | 26 to 50% |  |  |  |  | 
21 | Cn1ccc(-c2sc3nc(-c4nccn4C)nc(N4CCC5(CCOC5)C4)c3c2-c2ccccc2)n1 (stereo not drawn) [drawing 992] | 26 to 50% | 26 to 50% | 76 to 100% | 0% | 1 to 25% | 26 to 50% |  |  |  |  | 
22 | CO[C@@H]1CCC(Nc2nc(-c3nccn3C)nc3sc(-c4ccn(C)n4)c(-c4ccccc4)c23)C1 (stereo partly drawn) [drawing 994] | 26 to 50% | 26 to 50% | 76 to 100% | 0% | 26 to 50% | 26 to 50% |  |  |  |  | 
23 | CO[C@H]1CCC(Nc2nc(-c3nccn3C)nc3sc(-c4ccn(C)n4)c(-c4ccccc4)c23)C1 (stereo partly drawn) [drawing 995] | 51 to 75% | 51 to 75% | 76 to 100% | 51 to 75% | 51 to 75% | 1 to 25% |  |  |  |  | 
24 | Cn1ccc(-c2sc3nc(-c4nccn4C)nc(NCC4CCOC4)c3c2-c2ccccc2)n1 (stereo not drawn) [drawing 996] | 26 to 50% | 1 to 25% | 0% | 26 to 50% | 1 to 25% | 26 to 50% |  |  |  |  | 
25 | Cn1ccc(-c2sc3nc(-c4nccn4C)nc(NC4CCOCC4)c3c2-c2ccccc2)n1 [drawing 997] | 26 to 50% | 26 to 50% | 51 to 75% | 0% | 1 to 25% | 1 to 25% |  |  |  |  | 
26 | COC1CCN(c2nc(-c3nccn3C)nc3sc(-c4ccn(C)n4)c(-c4ccccc4)c23)C1 (stereo not drawn) [drawing 998] | 26 to 50% | 26 to 50% | 1 to 25% | 0% | 1 to 25% | 1 to 25% |  |  |  |  | 
27 | COCC(C)Nc1nc(-c2nccn2C)nc2sc(-c3ccn(C)n3)c(-c3ccccc3)c12 (stereo not drawn) [drawing 999] | 1 to 25% | 1 to 25% | 26 to 50% | 0% | 26 to 50% | 1 to 25% |  |  |  |  | 
28 | COCCCN(C)c1nc(-c2nccn2C)nc2sc(-c3ccn(C)n3)c(-c3ccccc3)c12 [drawing 1000] | 26 to 50% | 26 to 50% | 0% | 1 to 25% | 26 to 50% | 51 to 75% |  |  |  |  | 
29 | COCCCNc1nc(-c2nccn2C)nc2sc(-c3ccn(C)n3)c(-c3ccccc3)c12 [drawing 1001] | 26 to 50% | 1 to 25% | 0% | 0% | 26 to 50% | 1 to 25% |  |  |  |  | 
30 | COc1cccc(-c2sc3nc(-c4nccn4C)nc(N4CCC(OC)C4)c3c2-c2cscn2)c1 (stereo not drawn) [drawing 1002] | 1 to 25% | 0% | 1 to 25% | 0% | 51 to 75% | 1 to 25% |  |  |  |  | 
31 | COc1ccc(-c2c(-c3ccn(C)n3)sc3nc(-c4nccn4C)nc(N4CCC(OC)C4)c23)cc1 (stereo not drawn) [drawing 1003] | 0% | 0% | 26 to 50% | 0% | 1 to 25% | 0% |  |  |  |  | 
